The record followed here is PubChem BioAssay (NCI).

SMILES strings stand for the structures. Values joined by “and” are separate entries in the source; they are usually repeats but may differ in a detail not shown here. Equal entries are not always repeated.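 1) Cells in 96-well plates. 2) Compound, 48 h, 5 concentrations. 3) Linear interpolation between surrounding doses. 4) Unreached endpoint = highest concentration. GI50 = concentration required for 50% inhibition of growth. The concentration for full growth arrest is given as TGI.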

Among the test systems are SW-620 colon; LOX IMVI melanoma; HCT-116 colon; SK-MEL-28 melanoma; UO-31 renal; MDA-MB-435; NCI-H23 lung; A549 NSCLC; RXF 393 renal; HT29 colon.
Common to all, as to assay: inhibition of tumour cell growth, NCI panel, 48 h

Regarding `O=C(COc1ccc(/C=C2\Oc3ccccc3C2=O)cc1)Nc1nccs1`, the GI50 in the assay on SW-620 colon is greater than 100 µM; with LOX IMVI melanoma it was 0.371 µM; in the assay on HCT-116 colon, 39.1 µM; in the assay with SK-MEL-28 melanoma it was greater than 100 µM; in the assay with UO-31 renal, greater than 100 µM; with MDA-MB-435 it was 8.47 µM. For the same compound, the GI50 was 49.8 µM in the assay on NCI-H23 lung, 63.9 µM in the assay with A549 NSCLC, 0.354 µM in the assay on RXF 393 renal and greater than 100 µM in the assay on HT29 colon. Further, the TGI with SW-620 colon, with LOX IMVI melanoma, in the assay on HCT-116 colon, in the assay with SK-MEL-28 melanoma, in the assay on UO-31 renal and with MDA-MB-435 was greater than 100 µM throughout. Besides, the TGI in the assay with NCI-H23 lung is greater than 100 µM; in the assay on A549 NSCLC it was greater than 100 µM; in the assay with RXF 393 renal it was 15.1 µM; in the assay on HT29 colon, greater than 100 µM.
With `COc1cc(NS(C)(=O)=O)ccc1Nc1c2ccccc2nc2c(C)cccc12`, the GI50 was 0.0825 µM and 0.123 µM with SW-620 colon; 0.0512 µM and 0.0544 µM with LOX IMVI melanoma; 0.133 µM and 0.16 µM in the assay with HCT-116 colon; 1.1 µM and 1.33 µM in the assay on SK-MEL-28 melanoma; 0.215 µM and 0.124 µM in the assay with UO-31 renal; 0.626 µM and 1.44 µM with MDA-MB-435. Besides, the GI50 in the assay on NCI-H23 lung was 0.134 µM and 0.191 µM; in the assay on A549 NSCLC, 0.0189 µM and 0.0234 µM; with RXF 393 renal it was 0.258 µM and 0.326 µM; in the assay with HT29 colon, 0.443 µM and 0.372 µM. The TGI in the assay on SW-620 colon was 3.4 µM and 4 µM; with LOX IMVI melanoma, 1.35 µM and 1.51 µM; in the assay on HCT-116 colon it was 2.13 µM and 2.37 µM; in the assay with SK-MEL-28 melanoma, 7.68 µM and 13.7 µM; with UO-31 renal, 5.28 µM and 2.81 µM; with MDA-MB-435, 11.9 µM and 18.1 µM. Further, the TGI in the assay on NCI-H23 lung is 2.88 µM and 11.4 µM; in the assay with A549 NSCLC, 1.25 µM and 1.04 µM; in the assay on RXF 393 renal, 1.72 µM and 3.36 µM; in the assay with HT29 colon it was 8.98 µM and 2.09 µM.
For the compound `COc1cc(N2CCN(C(C)C)CC2)ccc1Nc1nc(Nc2cccc3ncccc23)c2cc[nH]c2n1`, the GI50 with SW-620 colon is 3.6 µM; in the assay with LOX IMVI melanoma, 3.3 µM; in the assay on HCT-116 colon, 3.04 µM; in the assay with SK-MEL-28 melanoma, 4.77 µM; in the assay on UO-31 renal, 3.79 µM; with MDA-MB-435 it was 5.47 µM. For the same compound, the GI50 in the assay on NCI-H23 lung was 5.7 µM; in the assay on A549 NSCLC, 2.92 µM; in the assay with RXF 393 renal it was 3.93 µM; in the assay with HT29 colon it was 1.5 µM. Further, the TGI with SW-620 colon was 14.9 µM; with LOX IMVI melanoma it was 6.95 µM; with HCT-116 colon, 7.11 µM; in the assay on SK-MEL-28 melanoma, 9.56 µM; in the assay with UO-31 renal, 11.6 µM; in the assay on MDA-MB-435, greater than 25 µM. The TGI with NCI-H23 lung is greater than 25 µM; in the assay on A549 NSCLC, 15.6 µM; in the assay with RXF 393 renal, 9.38 µM; in the assay on HT29 colon it was 5.54 µM.
In the case of `Cc1csc(/C=N/NC(=O)c2nnn(-c3ccnc4c(C(F)(F)F)cccc34)c2C)c1`, the GI50 is greater than 100 µM with SW-620 colon; 72.2 µM with LOX IMVI melanoma; 36 µM in the assay on HCT-116 colon; greater than 100 µM in the assay with SK-MEL-28 melanoma; greater than 100 µM with UO-31 renal; 85.3 µM in the assay on MDA-MB-435. In addition, the GI50 in the assay on NCI-H23 lung was 48.1 µM; in the assay on A549 NSCLC, 36.6 µM; with RXF 393 renal, 1.41 µM; in the assay with HT29 colon it was 10.1 µM. The TGI with SW-620 colon, with LOX IMVI melanoma, in the assay with HCT-116 colon, with SK-MEL-28 melanoma, in the assay with UO-31 renal and with MDA-MB-435 was greater than 100 µM in each case. For the same compound, the TGI is greater than 100 µM in the assay with NCI-H23 lung, greater than 100 µM in the assay with A549 NSCLC, 62.7 µM in the assay on RXF 393 renal and 82.5 µM with HT29 colon.
For `COc1ccc(C[n+]2c3ccccc3n3c4ccc(N)cc4ccc32)c(OC)c1OC`, the GI50 in the assay with SW-620 colon is 8.39 µM; in the assay on LOX IMVI melanoma, 10.7 µM; with HCT-116 colon, 12.6 µM; with SK-MEL-28 melanoma it was 1.89 µM; with UO-31 renal, 40.1 µM; with MDA-MB-435, 2.92 µM. Also, the GI50 with NCI-H23 lung is 1.99 µM; with A549 NSCLC, 19.3 µM; in the assay with RXF 393 renal, 6.3 µM; with HT29 colon, 4.63 µM. For the same compound, the TGI in the assay with SW-620 colon was 36.5 µM; in the assay on LOX IMVI melanoma, 36.3 µM; in the assay with HCT-116 colon it was 83.7 µM; in the assay with SK-MEL-28 melanoma, 5.56 µM; in the assay with UO-31 renal, greater than 100 µM; in the assay on MDA-MB-435, 13.5 µM. Moreover, the TGI in the assay on NCI-H23 lung was 24.9 µM; in the assay with A549 NSCLC, greater than 100 µM; with RXF 393 renal, 21.9 µM; with HT29 colon it was 33.2 µM.
For `NC(=O)c1cc(-c2ccncc2)cc(-c2ccccc2)c1N`, the GI50 in the assay on SW-620 colon was greater than 25 µM; with LOX IMVI melanoma, greater than 22.7 µM; in the assay with HCT-116 colon it was greater than 24 µM; in the assay with SK-MEL-28 melanoma it was greater than 25 µM; with UO-31 renal it was 6.41 µM; in the assay with MDA-MB-435 it was greater than 25 µM. The GI50 was greater than 25 µM with NCI-H23 lung, greater than 23.2 µM in the assay on A549 NSCLC, 5.41 µM in the assay on RXF 393 renal and greater than 25 µM in the assay on HT29 colon. The TGI with SW-620 colon, in the assay on LOX IMVI melanoma, in the assay on HCT-116 colon, with SK-MEL-28 melanoma, in the assay with UO-31 renal and in the assay with MDA-MB-435 was greater than 25 µM throughout. Besides, the TGI in the assay on NCI-H23 lung was greater than 25 µM; in the assay on A549 NSCLC it was greater than 25 µM; in the assay with RXF 393 renal, 24.9 µM; with HT29 colon, greater than 25 µM.
As for `Oc1c(C(Nc2cccc3ccccc23)c2ccccc2)ccc2cccnc12` (stereo not given), the GI50 is 3.73 µM in the assay on SW-620 colon; 1.92 µM in the assay on LOX IMVI melanoma; 2.86 µM in the assay on HCT-116 colon; 4.14 µM with SK-MEL-28 melanoma; 1.62 µM with UO-31 renal; 5 µM in the assay with MDA-MB-435. Further, the GI50 in the assay on NCI-H23 lung is 4.04 µM; in the assay on A549 NSCLC, 2.95 µM; in the assay with RXF 393 renal, 3.12 µM; in the assay with HT29 colon, 5.57 µM. The TGI with SW-620 colon was 24 µM; with LOX IMVI melanoma it was 13.7 µM; in the assay with HCT-116 colon, 17.9 µM; in the assay on SK-MEL-28 melanoma, greater than 100 µM; in the assay on UO-31 renal, 23 µM; in the assay with MDA-MB-435 it was greater than 100 µM. The TGI was 27.5 µM with NCI-H23 lung, greater than 100 µM in the assay on A549 NSCLC, 19.1 µM in the assay on RXF 393 renal and greater than 100 µM with HT29 colon.
